molecular target: T1, AM2 receptor (CALCRL+RAMP3) (Homo sapiens, UniProt O60896+Q16602); assay: AM2 receptor inhibition, LANCE TR-FRET cAMP agonist-antagonist competition assay; type: cell-based; conditions: inhibition of AM induced cAMP activation; 1321N1 cells transfected with CALCRL+RAMP3; read-out: AM2 pIC50 (converted)
T1 construct: host or cells: 1321N1
Experimental: Compounds were assessed for their ability to inhibit ligand-induced elevations of cAMP, using the Perkin Elmer LANCE cAMP assay using commercially-available cells expressing a specific receptor of interest using the following general procedure:
Compounds were prepared in dimethyl sulfoxide (DMSO—99.9% pure) (Sigma Aldrich, Cat #: D4540) added to powder stocks to produce a 20 mM solution (100% DMSO) that was sonicated at 37° C. for 10 minutes to fully dissolve the compounds. The 20 mM stocks were diluted further in DMSO to produce a 2 mM solution that was sonicated at 37° C. for 10 minutes. 2 mM stocks were dissolved in assay/stimulation buffer to produce a 400 μM solution that was sonicated at 37° C. for 10 minutes for all cAMP assays. All stocks were stored at −20° C. Then serial dilution (Dilution factor 10) was performed to achieve the desire experimental concentrations.
Competition assays were performed according to the manufactures instructions using LANCE® TR-FRET cAMP assay kit (Perkin Elmer, Cat #: AD0264). Serial dilutions (3 μl/well) of the molecules were plated in a 384-well OptiPlate (Perkin Elmer, Cat #: 6007299) in duplicates. Appropriate controls (100% stimulation: Forskolin and 0% stimulation: Vehicle control) (6 μl/well) were included in each plate for data normalization. Following the compound addition, 6 μl of G-protein coupled receptor overexpressing cells/Alexa Fluor antibody solution (1:100 dilution) was added in each well at a desired density of 2500 cells/well. The overexpressing cell lines were purchased from DiscoveRx, Birmingham, UK. After spinning the plate at 1000 rpm for 1 minute and vortexing briefly, the cells were pre-incubated with the compounds for 30 minutes at room temperature (covered). Then 3 μl of the equivalent peptide ligand (EC50 dose) was added to all the wells except vehicle and forskolin controls. The plate were then spun down at 1000 rpm for 1 minute and once finished they were vortexed briefly and covered. Cells were stimulated in the presence of the ligands for 15 minutes at room temperature. After stimulation 12 μl of detection mix (Europium-Chelate streptavidin/biotinylated cAMP tracer solution) was added to all wells and incubated for 60 minutes at room temperature. The plate was then read on the Enspire multimode Plate reader (Perkin Elmer), at; 320/340 nm excitation and 615/665 nm emission was recorded.
• 28 mL Hank's Balanced salt solution (+MgCl2, +CaCl2)—(Thermo Fisher Cat #:14170112) • 150 μl HEPES (1M)—(Thermo Fisher Cat #:15630080) • 400 μl Stabilizer (DTPA) Purified BSA (7.5%)—(Perkin Elmer, Cat #: CR84-100) • 60 μl IBMX (250 mM)—(Sigma Aldrich, Cat #: 15879) Specific cAMP/Agonist-Antagonist Competition Assays
The ability of a compound to inhibit the AM induced cAMP activation in AM2 receptor-expressing cells (1321N1 cells transfected with CALCRL+RAMP3, sourced from DiscoverX catalogue number 95-0169C6) was assessed using the protocol above.

T1 sequence (Q16602 23-461): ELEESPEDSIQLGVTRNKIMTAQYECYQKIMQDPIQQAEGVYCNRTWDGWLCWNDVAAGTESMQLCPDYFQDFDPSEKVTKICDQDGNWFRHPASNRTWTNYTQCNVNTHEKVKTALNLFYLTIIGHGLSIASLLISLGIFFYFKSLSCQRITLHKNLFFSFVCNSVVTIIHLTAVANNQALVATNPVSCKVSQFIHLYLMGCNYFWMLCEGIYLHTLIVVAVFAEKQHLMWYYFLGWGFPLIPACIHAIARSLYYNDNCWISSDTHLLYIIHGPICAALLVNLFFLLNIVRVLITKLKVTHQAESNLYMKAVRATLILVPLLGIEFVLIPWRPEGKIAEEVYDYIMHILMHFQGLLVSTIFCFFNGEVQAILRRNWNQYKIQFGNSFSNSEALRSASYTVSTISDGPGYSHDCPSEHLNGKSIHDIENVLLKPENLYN
T1 sequence (O60896 24-148): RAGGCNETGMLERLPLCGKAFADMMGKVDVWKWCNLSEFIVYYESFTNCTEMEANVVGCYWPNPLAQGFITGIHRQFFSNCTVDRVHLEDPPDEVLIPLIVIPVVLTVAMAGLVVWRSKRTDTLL

| SMILES | IC50 [nM] |
| --- | --- |
| CN(C)Cc1ccccc1CN(CC(=O)Nc1ccc2c(c1)CC1(C2)C(=O)Nc2ncccc21)C(=O)C(C)(C)C (stereo not shown) [Example 30, N-(2-((Dimethylamino)methyl)benzyl)-N-(2-oxo-2-((2′-oxo-1,1′,2′,3-tetrahydrospiro[indene-2,3′-pyrrolo[2,3-b]pyridin]-5-yl)amino)ethyl)pivalamide] | 29.5 |
| CNCc1ccccc1CN(C(=O)C(C)(C)C)[C@@H](C)C(=O)Nc1ccc2c(c1)CC1(C2)C(=O)Nc2ncccc21 (stereo partly drawn) [Example 34, N-(2-((Methylamino)methyl)benzyl)-N-((2S)-1-oxo-1-((2′-oxo-1,1′,2′,3-tetrahydrospiro[indene-2,3′-pyrrolo[2,3-b]pyridin]-5-yl)amino)propan-2-yl)pivalamide] | 12.3 |
| CNCc1ccccc1CN(C(=O)C(C)(C)C)[C@H](C)C(=O)Nc1ccc2c(c1)CC1(C2)C(=O)Nc2ncccc21 (stereo partly drawn) [Example 35, N-(2-((Methylamino)methyl)benzyl)-N-((2R)-1-oxo-1-((2′-oxo-1,1′,2′,3-tetrahydrospiro[indene-2,3′-pyrrolo[2,3-b]pyridin]-5-yl)amino)propan-2-yl)pivalamide] | 18.2 |
| CNCc1c(F)cccc1CN(CC(=O)Nc1ccc2c(c1)CC1(C2)C(=O)Nc2ncccc21)C(=O)C(C)(C)C (stereo not shown) [Example 36, N-(3-fluoro-2-((methylamino)methyl)benzyl)-N-(2-oxo-2-((2′-oxo-1,1′,2′,3-tetrahydrospiro[indene-2,3′-pyrrolo[2,3-b]pyridin]-5-yl)amino)ethyl)pivalamide] | 93.3 |
| CNCc1cc(F)c(F)cc1CN(CC(=O)Nc1ccc2c(c1)CC1(C2)C(=O)Nc2ncccc21)C(=O)C(C)(C)C (stereo not shown) [Example 37, N-(4,5-difluoro-2-((methylamino)methyl)benzyl)-N-(2-oxo-2-((2′-oxo-1,1′,2′,3-tetrahydrospiro[indene-2,3′-pyrrolo[2,3-b]pyridin]-5-yl)amino)ethyl)pivalamide] | 145 |
| Cc1cc2c(cc1NC(=O)CN(Cc1ccccc1CN)C(=O)C(C)(C)C)CC1(C2)C(=O)Nc2ncccc21 (stereo not shown) [Example 39, N-(2-(Aminomethyl)benzyl)-N-(2-((5-methyl-2′-oxo-1,1′,2,3-tetrahydrospiro[indene-2,3′-pyrrolo[2,3-b]pyridin]-6-yl)amino)-2-oxoethyl)pivalamide] | 15.5 |
| CNCc1ccccc1CN(CC(=O)Nc1cc2c(cc1C)CC1(C2)C(=O)Nc2ncccc21)C(=O)C(C)(C)C (stereo not shown) [Example 40, N-(2-((5-Methyl-2′-oxo-1,1′,2′,3-tetrahydrospiro[indene-2,3′-pyrrolo[2,3-b]pyridin]-6-yl)amino)-2-oxoethyl)-N-(2-((methylamino)methyl)benzyl)pivalamide] | 7.41 |
| CC(C)(C)C(=O)N(CC(=O)Nc1ccc2c(c1)CC1(C2)C(=O)Nc2ncccc21)Cc1ccccc1C(=N)NO (stereo not shown) [Example 41, N-(2-(N-Hydroxycarbamimidoyl)benzyl)-N-(2-oxo-2-((2′-oxo-1,1′,2′,3-tetrahydrospiro[indene-2,3′-pyrrolo[2,3-b]pyridin]-5-yl)amino)ethyl)pivalamide] | 100 |
| CC(=N)NCc1ccccc1CN(CC(=O)Nc1ccc2c(c1)CC1(C2)C(=O)Nc2ncccc21)C(=O)C(C)(C)C (stereo not shown) [Example 42, N-(2-(Acetimidamidomethyl)benzyl)-N-(2-oxo-2-((2′-oxo-1,1′,2′,3-tetrahydrospiro[indene-2,3′-pyrrolo[2,3-b]pyridin]-5-yl)amino)ethyl)pivalamide] | 135 |
| CC(C)(C)OC(=O)N(CC(=O)Nc1ccc2c(c1)CC1(C2)C(=O)Nc2ncccc21)Cc1ccccc1CN1CCC1 (stereo not shown) [Example 44, tert-Butyl 2-(azetidin-1-ylmethyl)benzyl(2-oxo-2-((2′-oxo-1,1′,2′,3-tetrahydrospiro[indene-2,3′-pyrrolo[2,3-b]pyridin]-5-yl)amino)ethyl)carbamate] | 74.1 |
